NOEL, NOAEL and LOEL data for 39 compounds are collected here from EPA's ToxValDB 9.5.

This series relates to Rattus norvegicus. To be noted: oral.
The mark [1] stands for this setting: short-term, duration: 28 days, gavage, M, Sprague-Dawley, Clinical Observation: Salivation + Urinalysis: Volume increase + Blood Chemistry: Ch E increase, T-CHO increase + Absolute Organ Weight: ….
Setting [2] is: subchronic, gavage, M, Sprague-Dawley, Clinical Observation: Soft stool + Urinalysis: pH decrease(trend)Phosphate crystal (grade, frequency) decrease + Histopathology: Stomach-….
The mark [3] stands for this setting: subchronic, gavage, M, Sprague-Dawley, Clinical Observation: Salivation Clonic convulsion + Body Weight Changes: Body weight gain decrease + Food Consumption: decrease + Water ….
Where [4] appears, read: subchronic, gavage, M, Sprague-Dawley, Clinical Observation: Salivation + Water Consumption: increase + Urinalysis: Urinary volume increase + Thyroid Hormone: Thyroid hormones', '….

Each structure is given as a SMILES string.

In the case of `C=CCOC(=O)c1ccccc1C(=O)OCC=C` [Diallyl phthalate], the NOEL (subchronic, duration: 13 weeks, gavage, M/F, Fischer 344, Deaths + Histopathology: Liver/periportal-Hepatocellular alteration Liver/periportal-Necrosis Liver/periportal-Fibrosis Liver/bile duct- …) amounted to 25 mg/kg-day.
Take `CC(O)c1ccccc1` (stereo not drawn) [alpha-Methylbenzyl alcohol]: for the setting “subchronic, duration: 13 weeks, gavage, M/F, Fischer 344, Deaths + Clinical Observation: Ataxia Rapid breathing Lethargy + Body Weight Changes: decrease + Urinalysis: -- + Absolute Organ Weight: …”, the NOEL is less than 93 mg/kg-day.
On to `Nc1ccccc1Cl` [2-Chloroaniline], for which, for the setting “subchronic, gavage, M/F, Fischer 344, Deaths + Clinical Observation: Tremors Wasting Bluish discoloration of genital and footpad regions + Body Weight Changes: decrease + …”, the NOEL was less than 10 mg/kg-day.
`Oc1ccc(Cl)cc1Cc1ccccc1` [Clorophene]: where the note is “subchronic, duration: 13 weeks, gavage, M/F, Fischer 344, Deaths + Clinical Observation: Red-yellow staining of urogenital region hair coat Alopecia of head Brown discoloration of hair coat around …”, the NOEL was less than 30 mg/kg-day.
As to `CCCCCCCCCCCCC(C(=O)OC)S(=O)(=O)[O-].[Na+]` (stereo not drawn) [Sodium 1-methoxy-1-oxotetradecane-2-sulfonate], the NOEL is, setting by setting: (subchronic, diet, F, Crj: CD (SD), Blood Chemistry: TG decrease + Absolute Organ Weight: Testis increase + Relative Organ Weight: Testis increase) 249 mg/kg-day; (subchronic, diet, M/F, Crj: CD (SD), Blood Chemistry: TG decrease + Absolute Organ Weight: Testis increase + Relative Organ Weight: Testis increase) 0.3%; (subchronic, diet, M, Crj: CD (SD), Blood Chemistry: TG decrease + Absolute Organ Weight: Testis increase + Relative Organ Weight: Testis increase) 175 mg/kg-day.
For the compound `C=CCCCC=C(C)C` [1,6-Octadiene, 7-methyl-], for the setting “short-term, duration: 28 days, gavage, M/F, Clinical Observation: Salivation + Blood Chemistry: TG increase”, the NOEL turned out to be 10 mg/kg-day.
`CN(C)c1ccc(C(c2ccccc2)c2ccc(N(C)C)cc2)cc1` [Leucomalachite green]: the NOEL (subchronic, diet, M, Fischer 344, Body Weight Changes: decrease + Hematology: Hct decrease, Hgb decrease, RBC decrease, Ret increase + Blood Chemistry: Alb decrease, Cho …) was less than 27.8 mg/kg-day.
With `CC(C)N1C(=O)C=CC1=O` [1-(Propan-2-yl)-1H-pyrrole-2,5-dione], for the setting “short-term, duration: 28 days, gavage, M/F, Clinical Observation: Salivation + Organ Weight: Liver increase, Kidney increase + Necropsy: Liver- Enlargement Kidney- Enlargement”, the NOEL came out at 40 mg/kg-day.
A word on the NOAEL: it is the highest tested level that showed no adverse finding. Turning to `CCCCC/C=C/C=C/C=O` [(E,E)-2,4-Decadienal], under “chronic, duration: 14 weeks, gavage, M/F, Fischer 344, Clinical Observation: Lethargy + Body Weight Changes: Mean body weight decrease, Body weight gain decrease + Hematology: WBC decrease, SEG …”, the NOAEL was 100 mg/kg-day.
On to `BrC1CCC(Br)C(Br)CCC1Br` (stereo not drawn) [1,2,5,6-Tetrabromocyclooctane], for which the NOEL (subchronic, gavage, M, Sprague-Dawley, Food Consumption: decrease, R (recovery day3) + Blood Chemistry: TP increase, Alb increase + Absolute Organ Weight: Liver increase + …) is less than 40 mg/kg-day.
Turning to `Nc1ccccc1C(=O)O` [Anthranilic acid], under setting [1], the NOAEL was determined as 200 mg/kg-day and the NOEL is less than 200 mg/kg-day.
As for `ClCBr` [Bromochloromethane], the NOEL (subchronic, duration: 42 days, gavage, M, CD(SD), Absolute Organ Weight: Liver increase + Relative Organ Weight: Liver increase + Necropsy: Stomach-Dark red focus, glandular stomach + …) came out at 30 mg/kg-day.
For the compound `O=N[O-].[Na+]` [Sodium nitrite], the NOEL by setting is: (chronic, duration: 14 weeks, water, F, Fischer 344, Deaths + Clinical Observation: Brown discoloration in eyes Cyanosis Hypoactive Alopecia + Body Weight Changes: decrease + Water Consumption…) less than 40 mg/kg-day; (chronic, duration: 14 weeks, water, M/F, Fischer 344, Deaths + Clinical Observation: Brown discoloration in eyes Cyanosis Hypoactive Alopecia + Body Weight Changes: decrease + Water Consumption…) less than 83.6 mg/kg-day.
As for `CC(C)(C)c1cc2nc(-c3ccc(N)cc3)nn2[nH]1`, the NOEL (short-term, duration: 28 days, gavage, M/F, Deaths + Clinical Observation: Locomotor activity decrease, Piloerection + Body Weight Changes: Gain decrease + Hematology: RBC decrease, …) was 2 mg/kg-day.
Consider `COc1cc(S(=O)(=O)CCOS(=O)(=O)O)c(C)cc1N`, for which, where the note is “short-term, duration: 28 days, gavage, M, Absolute Organ Weight: Liver increase + Histopathology: Kidney-Eosinophilic droplet, tubular epithelium”, the NOEL amounted to 30 mg/kg-day.
On to `CC(=O)O.O=C(NCC1CCCCN1)c1cc(OCC(F)(F)F)ccc1OCC(F)(F)F` (stereo not drawn) [Flecainide acetate], for which the no observed adverse effect level (NOAEL) is, setting by setting: (chronic, duration: 91 days, gavage, F, Sprague-Dawley, Deaths + Clinical Observation: Patchy hair loss Salivation + Water Consumption: increase + Urinalysis: Volume increase, Protein decrease + …) 20 mg/kg-day; (chronic, duration: 91 days, gavage, M, Sprague-Dawley, Deaths + Clinical Observation: Patchy hair loss Salivation + Water Consumption: increase + Urinalysis: Volume increase, Protein decrease + …) 10 mg/kg-day.
`CCC(Cl)C(Cl)C(Cl)CC(Cl)C(Cl)C(C)Cl` (stereo not drawn) [C10-12 chloroalkanes]: the NOEL (subchronic, duration: 13 weeks, gavage, M/F, Fischer 344, Clinical Observation: Inactive + Body Weight Changes: decrease + Relative Organ Weight: Liver increase + Histopathology: Liver-Hypertrophy, …) was less than 313 mg/kg-day.
In the case of `CN(c1nccc(=O)[nH]1)C1CCN(c2nc3ccccc3n2Cc2ccc(F)cc2)CC1` [Mizolastine], the no-observed-adverse-effect level (NOAEL) (chronic, duration: 182 days, gavage, M/F, Sprague-Dawley, Clinical Observation: Salivation + Urinalysis: Volume increase + Blood Chemistry: IP increase + Absolute Organ Weight: Liver increase, …) amounted to 5 mg/kg-day.
As to `O=C1CCc2ccccc2O1` [3,4-Dihydrocoumarin], the NOEL (subchronic, duration: 13 weeks, gavage, M/F, Fischer 344, Deaths + Body Weight Changes: decrease + Hematology: Plt decrease, Hct decrease, Hgb decrease, RBC decrease, WBC decrease, Lympho decrease…) was less than 75 mg/kg-day.
Consider `O=C(O)c1cc(C(=O)O)c(C(=O)O)cc1C(=O)O` [Pyromellitic acid], for which, under setting [2], the LOEL amounted to 100 mg/kg-day and the NOEL was less than 100 mg/kg-day.
As for `CN(C)c1ccc(C(=C2C=CC(=[N+](C)C)C=C2)c2ccccc2)cc1.[Cl-]` [Malachite green], the NOEL (subchronic, diet, M/F, Fischer 344, Body Weight Changes: decrease + Hematology: Hct decrease, RBC decrease, Hgb decrease + Blood Chemistry: Cho increase, gamma-GTP increase + …) turned out to be 12 mg/kg-day.
For the compound `OCC#CCO` [2-Butyne-1,4-diol], the NOEL (short-term, duration: 28 days, gavage, M/F, Wistar, Deaths + Body Weight Changes: decrease + Food Consumption: decrease + Hematology: RET increase, WBC increase, Neut increase, Lymph increase…) stood at 1 mg/kg-day.
Take `O=[N+]([O-])c1ccc(Cl)c([N+](=O)[O-])c1` [1-Chloro-2,4-dinitrobenzene]: the NOEL (subchronic, gavage, M, Sprague-Dawley, Relative Organ Weight: Thymus decrease + Histopathology: Stomach/forestomach- Squamous cell hyperplasia Stomach/forestomach -inflammatory …) amounted to 1 mg/kg-day.
In turn, `Cc1[nH]n(-c2ccccc2)c(=O)c1N=Nc1ccc(-c2ccc(N=Nc3c(C)[nH]n(-c4ccccc4)c3=O)c(Cl)c2)cc1Cl` [C.I. Pigment Orange 13] had an NOEL (subchronic, gavage, Sprague-Dawley) of 1000 mg/kg-day.
For `[Cl][Sn][Cl]` [Stannous chloride], for the setting “subchronic, duration: 13 weeks, diet, M/F, Fischer 344, Body Weight Changes: decrease”, the NOEL was 365 mg/kg-day.
Take `C[Si](C)(C)O` [Trimethylsilanol]: the NOAEL (short-term, duration: 28 days, gavage, M/F, Wistar, Clinical Observation: Staggering gait + Body Weight Changes: Body weight gain decrease + Relative Organ Weight: Liver increase + …) amounted to 250 mg/kg-day.
For `CN(C)c1cccc(C(=O)O)c1` [Benzoic acid, 3-(dimethylamino)-], where the note is “subchronic, gavage, M, Sprague-Dawley, Clinical Observation: Salivation + Blood Chemistry: Bil increase, Cl decrease + Relative Organ Weight: Heart increase”, the NOEL is 200 mg/kg-day.
As for `CC(C)(C)c1cc(C(=O)O)c(O)c(C(C)(C)C)c1` [Benzoic acid, 3,5-bis(1,1-dimethylethyl)-2-hydroxy-], the NOEL (subchronic, gavage, M, Sprague-Dawley, Blood Chemistry: ALT(GPT) increase, TG increase + Absolute Organ Weight: Liver increase + Relative Organ Weight: Liver increase) stood at 20 mg/kg-day.
In the case of `COC(=O)C1=C(C)NC(C)=C(C(=O)OCCN(C)Cc2ccccc2)C1c1cccc([N+](=O)[O-])c1.Cl` (stereo not drawn) [Nicardipine hydrochloride], under “subchronic, duration: 35 days, gavage, M/F, Sprague-Dawley, Deaths + Clinical Observation: Locomotor activity decrease, Prone position Dyspnea Ataxic gait Ptosis Piloerection Respiratory rate increase…”, the NOEL worked out at 10 mg/kg-day.
As to `CC(=O)OC1CCCCC1C(C)(C)C` (stereo not drawn) [2-tert-Butylcyclohexyl acetate], under setting [3], the no observed adverse effect level (NOAEL) was less than 50 mg/kg-day and the NOEL is less than 50 mg/kg-day.
As for `CC(C)Nc1ccc(NC(C)C)c2c1C(=O)c1ccccc1C2=O` [1,4-Bis(N-isopropylamino)anthraquinone], for the setting “subchronic, duration: 42 days, gavage, M, CD(SD), Clinical Observation: Dark purple feces Purple urine Purple colored skin + Urinalysis: Lite purple colored urine Purple colored urine + …”, the NOEL was 12 mg/kg-day.
Turning to `C1=Cc2cccc3cccc1c23` [Acenaphthylene], under “short-term, duration: 28 days, gavage, M/F, Crl:CD(SD), Deaths + Clinical Observation: Salivation, Rough coat, Wasting, Rearing cunut decrease + Functional Observational Battery: Forearm strength…”, the NOEL was found to be 4 mg/kg-day.
As for `CC(C)OC1(OC(C)C)CCCCC1` [1,1-Diisopropoxycyclohexane], the NOEL (subchronic, gavage, M, Sprague-Dawley, Clinical Observation: Salivation + Food Consumption: increase + Blood Chemistry: T-Cho increase + Absolute Organ Weight: Liver increase, …) amounted to 40 mg/kg-day.
Compound `CCCCCCCCCCC=O` [Undecanal] registered an NOAEL (subchronic, duration: 42 days, gavage, M, CD(SD), Clinical Observation: Salivation (transient)) of 1000 mg/kg-day.
Regarding `O=C(Cl)c1ccc(Cl)cc1` [4-Chlorobenzoyl chloride], under setting [4], the LOEL is 500 mg/kg-day and the NOEL amounted to 100 mg/kg-day.
With `NCc1ccc(Cl)nc1` [5-(Aminomethyl)-2-chloropyridine], for the setting “short-term, duration: 28 days, gavage, M/F, Clinical Observation: Salivation Locomotor activity decrease, Respiration rate decrease, Ptosis Lacrimation + Body Weight Changes: Weight …”, the NOEL turned out to be 8 mg/kg-day.
As for `CC[Si](Cl)(Cl)Cl` [Ethyl silicon trichloride], for the setting “short-term, duration: 28 days, gavage, M/F, Wistar, Clinical Observation: Staggering gait + Body Weight Changes: decrease + Relative Organ Weight: Liver increase, (Low and middle doses were …”, the NOAEL was 250 mg/kg-day.
For `CCCCCCC[CH2][Sn]([Cl])([Cl])[CH2]CCCCCCC` [Dichloro(dioctyl)stannane], for the setting “subchronic, duration: 90 days, diet, M/F, Wistar, Body Weight Changes: Weight gain decrease + Food Consumption: decrease + Urinalysis: Crystals increase + Hematology: RBC decrease, HGB …”, the NOAEL is more than 0.96 mg/kg-day.
Take `CCC(C)c1cc(C(C)(C)C)cc(-n2nc3ccccc3n2)c1O` (stereo not drawn) [2-(2H-Benzotriazol-2-yl)-6-(butan-2-yl)-4-tert-butylphenol]: where the note is “subchronic, duration: 42 days, gavage, M, Sprague-Dawley, Hematology: HGB decrease + Blood Chemistry: TP increase, Alb increase, A/G increase, ALP increase, ChE increase + Absolute Organ Weight: …”, the no-observed-adverse-effect level (NOAEL) stood at 4 mg/kg-day. For the same compound, the NOEL (subchronic, gavage, M, Sprague-Dawley, Blood Chemistry: TG decrease PL decrease Alb increase A/G increase Alp increase + Absolute Organ Weight: Liver increase + Relative Organ …) is less than 0.5 mg/kg-day.
